PubChem BioAssay (NCI)
Several values for one entry are separate records, joined by “and”; a condition that tells them apart may be missing. Equal entries are not always repeated.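 The compound was tested at five concentrations on cells cultured in 96-well plates, with a 48-hour exposure period. GI50 marks 50% less growth. Definition used: TGI = concentration required for complete inhibition of growth.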

Experiments:
Experiment in all cases: growth of human tumour cells (NCI), 48 h
ACHN renal = test system: ACHN renal
HOP-62 NSCLC = test system: HOP-62 NSCLC
MCF7 breast = test system: MCF7 breast
MDA-MB-231 breast = test system: MDA-MB-231 breast
RXF 393 renal = test system: RXF 393 renal
SF-539 CNS = test system: SF-539 CNS
SR leukemia = test system: SR leukemia
U251 CNS = test system: U251 CNS
UACC-257 melanoma = test system: UACC-257 melanoma
CAKI-1 renal = test system: CAKI-1 renal

| Structure (SMILES) | GI50 (ACHN renal) | TGI (ACHN renal) | GI50 (HOP-62 NSCLC) | TGI (HOP-62 NSCLC) [µM] | GI50 (MCF7 breast) [µM] | TGI (MCF7 breast) | GI50 (MDA-MB-231 breast) | TGI (MDA-MB-231 breast) | GI50 (RXF 393 renal) | TGI (RXF 393 renal) | GI50 (SF-539 CNS) | TGI (SF-539 CNS) | GI50 (SR leukemia) | TGI (SR leukemia) | GI50 (U251 CNS) | TGI (U251 CNS) [µM] | GI50 (UACC-257 melanoma) | TGI (UACC-257 melanoma) | GI50 (CAKI-1 renal) | TGI (CAKI-1 renal) |
| --- | --- | --- | --- | --- | --- | --- | --- | --- | --- | --- | --- | --- | --- | --- | --- | --- | --- | --- | --- | --- |
| O=C1C=CC(=O)N1c1cccc(N2C(=O)C=CC2=O)c1 | 1.77 µM | 3.21 µM | 16.8 µM | 33.5 | 2.52 | 5.52 µM | 1.97 µM | 4.53 µM | 1.7 µM | 3.1 µM | 1.84 µM | 3.46 µM | 3.07 µM | > 100 µM | 11.4 µM | 25.2 | 1.65 µM | 3.32 µM | – | – |
| CC1=C(C(=O)Nc2cc(Cl)c3[nH]ncc3c2)C(c2ccc(C(F)(F)F)cc2)CC(=O)N1 (stereo not given) | > 25 µM | > 25 µM | 5.07 µM | > 25 | > 16.1 | > 25 µM | 13.7 µM | > 25 µM | 2.37 µM | > 25 µM | 14.8 µM | > 25 µM | > 7.84 µM | > 25 µM | > 25 µM | > 25 | > 25 µM | > 25 µM | > 25 µM | > 25 µM |
| COc1cc2nccc(Oc3ccc(NC(=O)Nc4cc(C)on4)c(Cl)c3)c2cc1OC | 3.28 µM and 3.72 µM | 22.3 µM and > 10 µM | 5.58 µM and > 10 µM | > 100 | 3.35 | 56.2 µM and > 10 µM | 2.18 µM and 2.42 µM | 8.73 µM and > 10 µM | 1.96 µM and 1.79 µM | 6.2 µM and 8.18 µM | 1.49 µM and 1.41 µM | 4.05 µM and 4.74 µM | 2.62 µM and 3.86 µM | 34.4 µM and > 10 µM | 4.68 µM and 8.17 µM | > 100 | 3.73 µM and 5.54 µM | 33.9 µM and > 10 µM | 2.58 µM and 2.25 µM | 7.67 µM and > 10 µM |
| Cc1cc(N2CCOCC2)nc(N(CCCNc2ccnc3cc(Cl)ccc23)Cc2ccco2)n1 | 4.09 µM | 15.8 µM | 1.73 µM | 6 | 2.42 | 12.9 µM | 3.2 µM | 13.4 µM | 1.69 µM | 4.43 µM | 1.95 µM | 4.02 µM | 1.42 µM | 5.28 µM | 3.15 µM | 10.6 | 2.73 µM | 7.33 µM | – | – |
| O=C1C2CCN(CC2)C1(CO)CO | – | 32.3 µM | – | > 100 | – | 66.4 µM | – | 44 µM | – | 52 µM | – | > 78.1 µM | – | 55.3 µM | – | > 75.5 | – | 37.7 µM | – | 40 µM |
| CN1CCN(c2ccc(NC(=O)c3cncnc3Nc3ccc(OCc4ccccn4)c(Cl)c3)cc2)CC1 | 3.77 µM | 7.87 µM | 4.31 µM | 10.7 | 2.8 | 8.53 µM | 2 µM | 6.56 µM | 1.93 µM | 6.71 µM | 1.09 µM | 3.64 µM | 0.742 µM | 2.03 µM | 2.64 µM | 8.53 | 0.718 µM | 1.61 µM | 4.78 µM | 11.7 µM |
| CC(=O)O[C@H](C[C@H](C(C)C)N(C)C(=O)[C@@H](NC(=O)[C@H]1CCCN1C)C(C)C)c1nc(C(=O)N[C@@H](Cc2ccccc2)C[C@H](C)C(=O)O)c(C)s1 | – | – | < 0.00167 µM | > 16.7 | < 0.00167 | > 16.7 µM | 0.00292 µM | > 16.7 µM | < 0.00167 µM | > 16.7 µM | < 0.00167 µM | 0.0256 µM | < 0.00167 µM | > 16.7 µM | < 0.00167 µM | > 16.7 | > 16.7 µM | > 16.7 µM | – | – |
| CCOC(=O)C#Cc1c(C(=O)OCC)nnn1Cc1ccc([N+](=O)[O-])cc1 | 1.89 µM | 3.45 µM | 17.3 µM | 31.6 | 2.3 | 7.22 µM | 3.25 µM | 9.14 µM | 1.89 µM | 3.52 µM | – | – | 1.15 µM | 4.4 µM | 8.89 µM | 20.9 | 2.71 µM | 7.08 µM | 1.76 µM | 3.3 µM |
| CC(=O)O[C@H]1[C@@H]2OC(=O)C(CSc3ccccc3)[C@@H]2C[C@H]2O[C@]2(C)CC/C=C(\C)CCC[C@@H]1C (stereo not given in full) | 1.8 µM | 3.82 µM | 9.29 µM | 32.5 | 2.62 | 12 µM | 4.25 µM | 19.5 µM | 1.88 µM | 3.79 µM | 9.4 µM | 23.3 µM | 1.69 µM | > 20.1 µM | 3.97 µM | 16.5 | 5.07 µM | 19.2 µM | 1.69 µM | 6.34 µM |
| CC(CN(C)C)Oc1ccccc1NC1=C(Cl)C(=O)C(Nc2ccccc2OC(C)CN(C)C)=C(Cl)C1=O (stereo not given) | 0.174 µM | 0.312 µM | 1.67 µM | 3.07 | 0.169 | 0.41 µM | 0.509 µM | 1.2 µM | 0.663 µM | 2.03 µM | 1.44 µM | 2.76 µM | 0.265 µM | 1.17 µM | 1.33 µM | 2.73 | 1.16 µM | 2.53 µM | 1.34 µM | 2.72 µM |
| CN(CC(=O)Nc1nc2ccccc2[nH]1)S(=O)(=O)c1ccc(Cl)cc1 | > 100 µM | > 100 µM | > 100 µM | > 100 | > 100 | > 100 µM | > 100 µM | > 100 µM | 13.4 µM | 55.6 µM | > 100 µM | > 100 µM | > 100 µM | > 100 µM | > 100 µM | > 100 | > 100 µM | > 100 µM | > 100 µM | > 100 µM |
| NS(=O)(=O)CC1CC[CH-]CC1.[Cl-].[Cl-].[Cl-].[Cl-].[Cl-].[Sb+5].c1ccncc1 | > 100 µM | > 100 µM | > 100 µM | > 100 | > 100 | > 100 µM | > 100 µM | > 100 µM | > 100 µM | > 100 µM | > 100 µM | > 100 µM | > 100 µM | > 100 µM | > 100 µM | > 100 | > 100 µM | > 100 µM | > 100 µM | > 100 µM |
